pEC50: −log10 of the molar value. Where two headings read alike, the source gives them in different places.
Tests used:
Assay type in all cases: cell-based
[1] = test system: K-Ras mutant pancreatic, lung, and colon cancer cell lines, leukemia cell lines; assay: Proliferation assays, panel of cancer cell lines (summary statements)
Procedure: (§1) Briefly, cells at a density of 1,000-10,000 cells/well were seeded in 96-well plates and incubated at 37′C for 24 hours. A series of 9 different concentrations of compound stocks (500×) were created by 3-fold serial dilution in DMSO. These compounds were further diluted in culture media and then added to cells so that the final DMSO concentration was 0.2%. After 96 hours of incubation, 50 μL of CellTiter Glo reagent (Promega) was added to each well and luminescence was measured after 10 minutes using EnVision (PerkinElmer). […] The dose range for most compounds was 4.6 nM-30 μM. The dose ranges for some compounds were adjusted downward to 0.46 nM-3 μM or 0.08 nM-0.5 μM or 0.03 nM-0.2 μM. Luminescence from cells treated with […] alone was set as Max and % of inhibition was calculated as follows: Inhibition %=(Max-Sample value)/Max*100. Data was analyzed using XL-fit software (ID Business Solutions Ltd.) and EC50, relative EC50, and % of top inhibition were calculated. The results are shown in Tables 3-6 for pancreatic cancer, lung cancer, colon/gastric cancer, and leukemia cell lines.

BxPC-3 = assay: Proliferation assay (CellTiter Glo), BxPC-3; settings: BxPC-3 (WT K-ras)
Procedure: as §1, with “calculated.” for “calculated. The results are shown in Tables 3-6 for pancreatic cancer, lung cancer, colon/gastric cancer, and leukemia cell lines.”
(§2) Other cancer cell lines having wild-type K-ras status and K-ras mutation at G12 were also screened using the PKC activator compounds. […] K-104 was tested in a range of 0.03 nM-0.2 μM. […] The dose ranges were adjusted downward to 0.46 nM-3 μM for K-102 and 0.08 nM-0.5 μM for K-103 for some cell lines.

MiaPaCa-2 = assay: Proliferation assay (CellTiter Glo), MiaPaCa-2
Procedure: as §1, with “calculated.” for “calculated. The results are shown in Tables 3-6 for pancreatic cancer, lung cancer, colon/gastric cancer, and leukemia cell lines.”

H838 = assay: Proliferation assay (CellTiter Glo), H838; settings: H838 (WT K-ras)
Procedure: as §1, with “calculated.” for “calculated. The results are shown in Tables 3-6 for pancreatic cancer, lung cancer, colon/gastric cancer, and leukemia cell lines.”
as §2

HL60 = assay: Proliferation assay (CellTiter Glo), HL60
Procedure: as §1

Colo205 = assay: Proliferation assay (CellTiter Glo), Colo205; settings: Colo205 (WT K-ras)
Procedure: as §1, with “calculated.” for “calculated. The results are shown in Tables 3-6 for pancreatic cancer, lung cancer, colon/gastric cancer, and leukemia cell lines.”
as §2

A549 = assay: Proliferation assay (CellTiter Glo), A549
Procedure: as §1

AGS = assay: Proliferation assay (CellTiter Glo), AGS
Procedure: as §1

LS180 = assay: Proliferation assay (CellTiter Glo), LS180
Procedure: as §1

SW900 = assay: Proliferation assay (CellTiter Glo), SW900; settings: SW900 (K-ras: G12V)
Procedure: as §1, with “calculated.” for “calculated. The results are shown in Tables 3-6 for pancreatic cancer, lung cancer, colon/gastric cancer, and leukemia cell lines.”
as §2

HCT116 = assay: Proliferation assay (CellTiter Glo), HCT116
Procedure: as §1

RPMI8226 = assay: Proliferation assay (CellTiter Glo), RPMI8226; settings: RPMI8226 (K-ras: G12A)
Procedure: as §1, with “calculated.” for “calculated. The results are shown in Tables 3-6 for pancreatic cancer, lung cancer, colon/gastric cancer, and leukemia cell lines.”
as §2

H441 = assay: Proliferation assay (CellTiter Glo), H441
Procedure: as §1

HT29 = assay: Proliferation assay (CellTiter Glo), HT29; settings: HT29 (WT K-ras)
Procedure: as §1, with “calculated.” for “calculated. The results are shown in Tables 3-6 for pancreatic cancer, lung cancer, colon/gastric cancer, and leukemia cell lines.”
as §2

THP1 = assay: Proliferation assay (CellTiter Glo), THP1
Procedure: as §1

SW620 = assay: Proliferation assay (CellTiter Glo), SW620
Procedure: as §1

H1915 = assay: Proliferation assay (CellTiter Glo), H1915; settings: H1915 (WT K-ras)
Procedure: as §1, with “calculated.” for “calculated. The results are shown in Tables 3-6 for pancreatic cancer, lung cancer, colon/gastric cancer, and leukemia cell lines.”
as §2

Capan-1 = assay: Proliferation assay (CellTiter Glo), Capan-1
Procedure: as §1

H727 = assay: Proliferation assay (CellTiter Glo), H727
Procedure: as §1

H358 = assay: Proliferation assay (CellTiter Glo), H358
Procedure: as §1

KP-4 = assay: Proliferation assay (CellTiter Glo), KP-4
Procedure: as §1

Panc2.03 = assay: Proliferation assay (CellTiter Glo), Panc2.03; settings: for Top inhibition %: 96 hours
Procedure: as §1

Panc2.13 = assay: Proliferation assay (CellTiter Glo), Panc2.13
Procedure: as §1

AsPC-1 = assay: Proliferation assay (CellTiter Glo), AsPC-1
Procedure: as §1

CCRF-CEM = assay: Proliferation assay (CellTiter Glo), CCRF-CEM
Procedure: as §1

[2] = absolute EC50, 96 hours, read-out: Ab EC50
[3] = relative EC50, 96 hours, read-out: Re EC50

In the case of `CCC/C=C/C=C/C(=O)O[C@H]1/C(=C/C(=O)OC)C[C@H]2C[C@H]([C@@H](C)O)OC(=O)C[C@H](O)C[C@@H]3C[C@H](OC(C)=O)C(C)(C)[C@](O)(C[C@@H]4C/C(=C/C(=O)OC)C[C@H](/C=C/C(C)(C)[C@]1(O)O2)O4)O3` [Compound K-104, Bryostatin 1], the “potency in proliferation inhibition relative to prostratin” value [1] was “less potent in proliferation inhibition” and the “activity in cancer cell lines” value ([1]; cell lines with wild-type K-ras and K-ras G12 mutations (Table 7)) was “much lower activity”.
In the case of `CC(=O)O[C@@]12C[C@@H](C)[C@]3(O)C4C=C(C)C(O)[C@@]4(O)CC(CO)=C[C@H]3[C@@H]1C2(C)C` (some centres unmarked) [Compound K-101C], the “Top inhibition %” value (BxPC-3) was 36.67%, the Top inhibition % (MiaPaCa-2; 96 hours) was 40.1% and the pEC50 (MiaPaCa-2; [2]) was < 4.52. For the same compound, the pEC50 (MiaPaCa-2; [3]) was 5.36, the “Top inhibition %” value (H838) was 20.2% and the Top inhibition % (HL60; 96 hours) was 63.9%. For the same compound, the pEC50 (HL60; [2]) was 4.77, the pEC50 (HL60; [3]) was 4.89 and the “Top inhibition %” value (Colo205) was 73.2%. For the same compound, the Top inhibition % (A549; 96 hours) was 70.3%, the pEC50 (A549; [2]) was 4.89 and the pEC50 (A549; [3]) was 5.18. The Top inhibition % (AGS; 96 hours) was 25.3%, the pEC50 (AGS; [2]) was < 4.52 and the pEC50 (AGS; [3]) was 4.96. The Top inhibition % (LS180; 96 hours) was 6.8%, the pEC50 (LS180; [2]) was < 4.52 and the “Top inhibition %” value (SW900) was 10.9%. The Top inhibition % (HCT116; 96 hours) was 12.2%, the pEC50 (HCT116; [2]) was < 4.52 and the “Top inhibition %” value (RPMI8226) was 22.72%. For the same compound, the Top inhibition % (H441; 96 hours) was 37.0%, the pEC50 (H441; [2]) was < 4.52 and the pEC50 (H441; [3]) was 5.13. The “Top inhibition %” value (HT29) was 4.8%, the Top inhibition % (THP1; 96 hours) was 51.4% and the pEC50 (THP1; [2]) was 4.80. The pEC50 (THP1; [3]) was 5.09, the Top inhibition % (SW620; 96 hours) was 0.0% and the pEC50 (SW620; [2]) was < 4.52. The “Top inhibition %” value (H1915) was 28.9%, the Top inhibition % (Capan-1; 96 hours) was 35.7% and the pEC50 (Capan-1; [2]) was < 4.52. For the same compound, the pEC50 (Capan-1; [3]) was 5.27, the Top inhibition % (H727; 96 hours) was 42.8% and the pEC50 (H727; [2]) was < 4.52. For the same compound, the pEC50 (H727; [3]) was 5.44, the Top inhibition % (H358; 96 hours) was 44.0% and the pEC50 (H358; [2]) was < 4.52. It also gave a pEC50 (H358; [3]) of 5.30, a Top inhibition % (KP-4; 96 hours) of 70.4% and a pEC50 (KP-4; [2]) of 4.96. It also gave a pEC50 (KP-4; [3]) of 5.17.
Compound `CC(=O)O[C@H]1C(=O)[C@@]2(C)[C@H]([C@H](OC(=O)c3ccccc3)[C@]3(O)C[C@H](OC(=O)[C@H](O)[C@@H](NC(=O)c4ccccc4)c4ccccc4)C(C)=C1C3(C)C)[C@]1(OC(C)=O)CO[C@@H]1C[C@@H]2O` [Paclitaxel, reference compound] has a Top inhibition % (Panc2.03) of 64.6%.
For `CC(=O)O[C@@]12C[C@@H](C)[C@]3(O)C4C=C(C)C(=O)[C@@]4(O)CC(COC(=O)CC(N)C(=O)[O-])=C[C@H]3[C@@H]1C2(C)C.[Na+]` (some centres unmarked) [Compound K-101I], the “Top inhibition %” value (BxPC-3) was 38.12%, the Top inhibition % (Panc2.03) was 26.3% and the pEC50 (Panc2.03; [2]) was < 4.52. The pEC50 (Panc2.03; [3]) was 5.22, the Top inhibition % (Panc2.13; 96 hours) was 48.3% and the pEC50 (Panc2.13; [2]) was < 4.52. For the same compound, the pEC50 (Panc2.13; [3]) was 6.80, the Top inhibition % (AsPC-1; 96 hours) was 25.0% and the pEC50 (AsPC-1; [2]) was < 4.52. The pEC50 (AsPC-1; [3]) was 5.18, the “Top inhibition %” value (H838) was 29.3% and the “Top inhibition %” value (Colo205) was 82.2%. The “Top inhibition %” value (SW900) was 10.8%, the “Top inhibition %” value (RPMI8226) was 17.60% and the “Top inhibition %” value (HT29) was 11.8%. For the same compound, the “Top inhibition %” value (H1915) was 16.4%, the Top inhibition % (CCRF-CEM; 96 hours) was 37.4% and the pEC50 (CCRF-CEM; [2]) was < 4.52. It also gave a pEC50 (CCRF-CEM; [3]) of 5.82.

Source: US12502369B2, “Methods of cancer treatment” (K-GEN, INC., priority 2015, dated 2025)
